Structures are written as SMILES. Inconclusive results are not listed. Activity calls are given as the source filed them.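 How the source made its calls: active means compounds whose fitted AC50 for signal loss is at most twice the top valid dose tested; inconclusive means flat curve with 30 to 70% inhibition, or poor fit; inactive means the rest.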

For the experiment, the target named is Leucyl-cystinyl aminopeptidase (Mus musculus) (UniProt Q8C129). In words: IRAP inhibitors, dose response, selectivity assay for ERAP1 modulator project, biochemical, Leu-AMC fluorescence, cherry-picked samples, set 2 (AID 743340). Conditions: purified IRAP, Leu-AMC cleavage fluorescence, 1 h.
Chain of Leucyl-cystinyl aminopeptidase (Mus musculus) (Q8C129 whole entry, looked up): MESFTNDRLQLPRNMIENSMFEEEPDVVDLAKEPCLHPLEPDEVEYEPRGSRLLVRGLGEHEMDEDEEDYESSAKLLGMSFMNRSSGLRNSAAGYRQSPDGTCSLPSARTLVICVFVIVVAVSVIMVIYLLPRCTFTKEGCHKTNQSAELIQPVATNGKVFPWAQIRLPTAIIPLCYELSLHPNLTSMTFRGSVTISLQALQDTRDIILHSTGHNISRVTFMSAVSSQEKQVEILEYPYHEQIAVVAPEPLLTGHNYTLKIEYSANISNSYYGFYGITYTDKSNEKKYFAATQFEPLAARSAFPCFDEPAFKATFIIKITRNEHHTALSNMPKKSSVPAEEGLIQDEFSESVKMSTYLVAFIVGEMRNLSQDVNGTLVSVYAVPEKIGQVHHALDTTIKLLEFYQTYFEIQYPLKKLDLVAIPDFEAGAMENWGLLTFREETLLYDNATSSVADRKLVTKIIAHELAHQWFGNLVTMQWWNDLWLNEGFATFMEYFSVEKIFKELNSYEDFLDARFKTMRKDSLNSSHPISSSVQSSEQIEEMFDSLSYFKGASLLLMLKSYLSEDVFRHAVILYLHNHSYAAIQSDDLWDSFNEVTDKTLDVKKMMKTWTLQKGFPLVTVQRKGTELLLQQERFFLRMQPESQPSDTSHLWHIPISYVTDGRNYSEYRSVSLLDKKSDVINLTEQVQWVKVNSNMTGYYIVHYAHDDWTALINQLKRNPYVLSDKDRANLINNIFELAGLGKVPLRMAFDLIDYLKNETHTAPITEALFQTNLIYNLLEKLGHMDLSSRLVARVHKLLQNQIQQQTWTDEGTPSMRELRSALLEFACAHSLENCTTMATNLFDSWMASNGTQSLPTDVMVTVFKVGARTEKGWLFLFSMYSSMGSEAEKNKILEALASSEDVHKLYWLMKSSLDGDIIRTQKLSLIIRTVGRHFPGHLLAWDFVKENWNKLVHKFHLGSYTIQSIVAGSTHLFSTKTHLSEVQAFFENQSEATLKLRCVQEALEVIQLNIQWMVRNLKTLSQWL

Regarding `C[C@@H]1CCCCO[C@H](CN(C)Cc2ccc(C(=O)O)cc2)[C@@H](C)CN([C@H](C)CO)C(=O)c2cc(NC(=O)Nc3ccc(C(F)(F)F)cc3)ccc2O1`, the “activity change, negative = inhibition” value (at 11 µM (top of the series)) is “inactive”.

For the molecule `CCC(=O)N(C)C[C@@H]1Oc2ncc(C#Cc3ccncc3)cc2C(=O)N([C@@H](C)CO)C[C@@H]1C`, under “at 11 µM (top of the series)”, the “activity change, negative = inhibition” value was “inactive”.

As to `C[C@@H]1CCCCO[C@@H](CN(C)C)[C@@H](C)CN([C@@H](C)CO)C(=O)c2cc(NS(=O)(=O)c3ccc(F)cc3)ccc2O1`, the “activity change, negative = inhibition” value (at 11 µM (top of the series)) was “inactive”.

With `CCn1cc(CN2CCCC(C(=O)Nc3ccc(-c4nc5ccccc5[nH]4)cc3)C2)c(C)n1` (stereo not given), for the setting “at 11 µM (top of the series)”, the “activity change, negative = inhibition” value is “inactive”.

Consider `C[C@H]1CN([C@@H](C)CO)C(=O)c2cccc(NC(=O)Nc3ccc4c(c3)OCO4)c2O[C@@H]1CN(C)CC1CC1`, for which the “activity change, negative = inhibition” value (at 11 µM (top of the series)) was “inactive”. For the molecule `COc1ccc(CN(C)C[C@@H]2OCCCC[C@H](C)Oc3ccc(NS(=O)(=O)c4cccs4)cc3C(=O)N([C@@H](C)CO)C[C@@H]2C)cc1`, the “activity change, negative = inhibition” value (at 11 µM (top of the series)) was “inactive”. For `Cc1noc(C)c1NC(=O)N(C)C[C@@H]1Oc2c(NC(=O)Nc3ccc(F)cc3)cccc2C(=O)N([C@H](C)CO)C[C@@H]1C`, the “activity change, negative = inhibition” value (at 11 µM (top of the series)) was “inactive”.

`C[C@H](CO)N1C[C@H](C)[C@H](CN(C)Cc2ccncc2)Oc2c(NC(=O)Nc3ccc(C(F)(F)F)cc3)cccc2C1=O`: under “at 11 µM (top of the series)”, the “activity change, negative = inhibition” value was “inactive”. The same measure, in the same setting: then `COc1ccc(NC(=O)Nc2ccc3c(c2)C(=O)N([C@H](C)CO)C[C@@H](C)[C@@H](CN(C)Cc2ccc(C(=O)O)cc2)OCCCC[C@@H](C)O3)cc1`, with “inactive”. With `Cc1noc(C)c1S(=O)(=O)Nc1ccc2c(c1)C(=O)N([C@H](C)CO)C[C@@H](C)[C@@H](CN(C)CC1CCCCC1)OCCCC[C@@H](C)O2`, the “activity change, negative = inhibition” value (at 11 µM (top of the series)) was “inactive”. On to `CCCN(C)C[C@@H]1OCCCC[C@@H](C)Oc2ccc(NS(=O)(=O)c3ccc(F)cc3)cc2C(=O)N([C@H](C)CO)C[C@@H]1C`, for which, for the setting “at 11 µM (top of the series)”, the “activity change, negative = inhibition” value was “inactive”.

As to `C[C@@H]1CN([C@H](C)CO)C(=O)c2cc(NC(=O)Nc3ccc(F)cc3)ccc2O[C@H]1CN(C)Cc1ccc(C(=O)O)cc1`, the “activity change, negative = inhibition” value (at 11 µM (top of the series)) was “inactive”.

For the molecule `COc1ccc(S(=O)(=O)N(C)C[C@@H]2Oc3ncccc3C(=O)N([C@H](C)CO)C[C@@H]2C)cc1`, the “activity change, negative = inhibition” value (at 5.6 µM (top of the series)) is “inactive”. As to `COc1ccc2c3c([nH]c2c1)[C@H](CO)N(Cc1cc(F)ccc1F)CC31CN(C)C1`, where the note is “at 11 µM (top of the series)”, the “activity change, negative = inhibition” value was “inactive”.

`COc1ccc(NC(=O)Nc2ccc3c(c2)C(=O)N([C@H](C)CO)C[C@@H](C)[C@H](CN(C)Cc2ccc(C(=O)O)cc2)OCCCC[C@@H](C)O3)cc1`: the “activity change, negative = inhibition” value (at 11 µM (top of the series)) is “inactive”. For `COc1cccc(S(=O)(=O)N(C)C[C@@H]2Oc3ncccc3C(=O)N([C@H](C)CO)C[C@@H]2C)c1`, under “at 11 µM (top of the series)”, the “activity change, negative = inhibition” value was “inactive”. Still for that read-out and setting: next, `CO[C@@H]1CN(C)C(=O)c2ccc(NC(=O)Nc3cccc(Cl)c3)cc2OC[C@@H](C)NC[C@H]1C`: “inactive”; `C[C@@H]1CCCCO[C@@H](CN(C)Cc2ccccc2)[C@H](C)CN([C@H](C)CO)C(=O)c2cc(NS(=O)(=O)c3cccs3)ccc2O1`: “inactive”.

Consider `C[C@@H]1CCCCO[C@@H](CN(C)Cc2ccc(C(=O)O)cc2)[C@@H](C)CN([C@H](C)CO)C(=O)c2cc(NC(=O)Nc3cccc4ccccc34)ccc2O1`, for which the “activity change, negative = inhibition” value (at 11 µM (top of the series)) is “inactive”. Regarding `N#Cc1c(N2CCNCC2)nc(-c2ccco2)c2c1CCCC2`, the “activity change, negative = inhibition” value (at 11 µM (top of the series)) was “inactive”.

Regarding `NC(=NCCc1c[nH]c2ccccc12)NS(=O)(=O)c1cc(F)ccc1F`, the “activity change, negative = inhibition” value (at 11 µM (top of the series)) was “inactive”. On to `CCCN(C)C[C@@H]1OCCCC[C@@H](C)Oc2ccc(NS(=O)(=O)c3ccccc3)cc2C(=O)N([C@H](C)CO)C[C@@H]1C`, for which the “activity change, negative = inhibition” value (at 11 µM (top of the series)) is “inactive”. `Cc1ccc(S(=O)(=O)Nc2ccc3c(c2)C(=O)N([C@@H](C)CO)C[C@H](C)[C@H](CN(C)C)OCCCC[C@@H](C)O3)cc1`: under “at 11 µM (top of the series)”, the “activity change, negative = inhibition” value is “inactive”. `COc1ccc(CN(C)C[C@H]2OCCCC[C@@H](C)Oc3ccc(NS(=O)(=O)c4cccs4)cc3C(=O)N([C@H](C)CO)C[C@H]2C)cc1`: the “activity change, negative = inhibition” value (at 11 µM (top of the series)) was “inactive”.

As for `C[C@@H]1CCCCO[C@@H](CN(C)C)[C@@H](C)CN([C@@H](C)CO)C(=O)c2cc(NS(=O)(=O)c3ccc(Cl)cc3)ccc2O1`, under “at 11 µM (top of the series)”, the “activity change, negative = inhibition” value is “inactive”. Still for that read-out and setting: next, `COc1ccc(S(=O)(=O)Nc2ccc3c(c2)C(=O)N([C@@H](C)CO)C[C@H](C)[C@H](CN(C)C)OCCCC[C@@H](C)O3)cc1`: “inactive”. On to `Cc1noc(C)c1S(=O)(=O)N(C)C[C@@H]1OCCCC[C@@H](C)Oc2ccc(NS(=O)(=O)c3cccs3)cc2C(=O)N([C@@H](C)CO)C[C@@H]1C`, for which the “activity change, negative = inhibition” value (at 10 µM (top of the series)) was “inactive”. For the molecule `CCCN(C)C[C@@H]1OCCCC[C@@H](C)Oc2ccc(NS(=O)(=O)c3ccc(C)cc3)cc2C(=O)N([C@@H](C)CO)C[C@@H]1C`, the “activity change, negative = inhibition” value (at 5 µM (top of the series)) was “inactive”. For the molecule `CCCN(C)C[C@@H]1OCCCC[C@@H](C)Oc2ccc(NS(=O)(=O)c3ccc(C)cc3)cc2C(=O)N([C@H](C)CO)C[C@@H]1C`, the AC50 (commonly the concentration giving half of the maximal activity seen) was > 20000 nM (inactive).

For the molecule `Cc1ccc(-c2cc(C(=O)N3CCCC3)c3ccccc3n2)s1`, the “activity change, negative = inhibition” value (at 11 µM (top of the series)) was “inactive”. On the same count and under the same terms, next, `O=C(C[C@H]1CC[C@@H]2[C@H](COC[C@@H](O)CN2C(=O)Nc2cccc(Cl)c2)O1)N1CCCCC1`: “inactive”. `CC(C)[C@@H](C(=O)N[C@@H](CCc1ccc(O)cc1)C(=O)O)N(C)C(=O)[C@H](CO)NC(=O)[C@@H](O)[C@H](N)CCCCCCCCl`: the AC50 was 44.9 nM.

In the case of `C[C@@H]1CN([C@H](C)CO)C(=O)c2cccc(NC(=O)Nc3ccccc3)c2O[C@@H]1CN(C)Cc1ccc(C(=O)O)cc1`, the “activity change, negative = inhibition” value (at 11 µM (top of the series)) is “inactive”. Consider `Cc1ccc2nc3c(cc(C(=O)NCc4ccccc4)c(=N)n3CCCn3ccnc3)c(=O)n2c1`, for which the “activity change, negative = inhibition” value (at 11 µM (top of the series)) was “inactive”. For the molecule `C[C@@H]1CCCCO[C@@H](CN(C)C)[C@H](C)CN([C@@H](C)CO)C(=O)c2cc(NC(=O)Nc3ccc(C(F)(F)F)cc3)ccc2O1`, the “activity change, negative = inhibition” value (at 10 µM (top of the series)) is “inactive”. Take `COc1ccc(CN(C)C[C@H]2OCCCC[C@@H](C)Oc3ccc(NS(=O)(=O)c4cccs4)cc3C(=O)N([C@@H](C)CO)C[C@H]2C)cc1`: the “activity change, negative = inhibition” value (at 11 µM (top of the series)) is “inactive”.

Turning to `C[C@@H]1CCCCO[C@H](CN(C)C)[C@H](C)CN([C@H](C)CO)C(=O)c2cc(NS(=O)(=O)c3ccc(Cl)cc3)ccc2O1`, under “at 11 µM (top of the series)”, the “activity change, negative = inhibition” value is “inactive”. As for `C[C@@H]1CCCCO[C@@H](CN(C)Cc2ccc3c(c2)OCO3)[C@@H](C)CN([C@H](C)CO)C(=O)c2cc(NS(=O)(=O)c3cccs3)ccc2O1`, under “at 11 µM (top of the series)”, the “activity change, negative = inhibition” value was “inactive”.

Consider `COc1ccc(CN(C)C[C@@H]2OCCCC[C@H](C)Oc3ccc(NS(=O)(=O)c4cccs4)cc3C(=O)N([C@H](C)CO)C[C@@H]2C)cc1`, for which the “activity change, negative = inhibition” value (at 11 µM (top of the series)) is “inactive”.

Consider `O=C(CSc1cn[nH]n1)Nc1cccc(C(=O)O)c1`, for which the “activity change, negative = inhibition” value (at 11 µM (top of the series)) was “inactive”.
